In PMC9649612, “Molecular docking and biochemical validation of (-)-syringaresinol-4-O-β-D-apiofuranosyl-(1→2)-β-D-glucopyranoside binding to an allosteric site in monoamine transporters” (Frontiers in Pharmacology, 2022):

Legend:
[1] = target: T1, hSERT E493N (S2 site mutant) (Homo sapiens, UniProt P31645, E493N); test: APP+ transport in HeLa cells expressing hSERT mutant E493N; format: cell-based; conditions: 2 μM APP+ 5 min, intact HeLa cells, read-out: SAG IC50 for transport
T1 construct: expressed in transfected cells; host or cells: HeLa (ATCC CCL-2), transient, pcDNA3.1
Procedure: (§1) The mutants used for this study were constructed in the WT background carried by the expression plasmids for hSERT, hDAT, or hNET under the control of CMV promotor in pcDNA3.1 vector, respectively. All mutants were generated using the Mut Express II Fast Mutagenesis Kit (Vazyme) and confirmed by full-length DNA sequencing.
(§2) HeLa cells were cultured in Dulbecco’s Modified Eagle’s Medium supplemented with 10% fetal bovine serum, 100 units/ml penicillin, and 100 μg/ml streptomycin at 37°C in a humidified 5% CO2 incubator. Cells were plated in a 6-well culture plate and grown overnight. Cells at ∼70% confluence were transfected with hSERT, hDAT, or hNET cDNA in pcDNA3.1 by lipofectamine 2000. […] After grown for additional 12–16 h, the cells were assayed for APP^+ or ASP^+ fluorescence image acquisition.
(§3) The cells expressing WT or mutants of hSERT, hDAT, or hNET were wet mounted on polylysine coated glass slides in 12-well plates and applied for the indicated treatments. […] The extent of APP^+ accumulated in the cells was determined by confocal imaging analysis. ASP^+ binding to SERT in the cell membrane was measured with digitonin-permeabilized cells ([Li M. et al., 2022a]). […] After removing excess ASP^+ by rapid washing three times, ASP^+ binding was determined by confocal imaging analysis.
(§4) Images were analyzed using Zen Blue software. […]

[2] = target: T2, hSERT T497A (S2 site mutant) (Homo sapiens, UniProt P31645, T497A); test: APP+ transport in HeLa cells expressing hSERT mutant T497A; format: cell-based; conditions: 2 μM APP+ 5 min, intact HeLa cells, read-out: SAG IC50 for transport
T2 construct: expressed in transfected cells; host or cells: HeLa (ATCC CCL-2), transient, pcDNA3.1
Procedure: as §1, §2, §3, §4

[3] = target: T3, hSERT P499G (S2 site mutant) (Homo sapiens, UniProt P31645, P499G); test: APP+ transport in HeLa cells expressing hSERT mutant P499G; format: cell-based; conditions: 2 μM APP+ 5 min, intact HeLa cells, read-out: SAG IC50 for transport
T3 construct: expressed in transfected cells; host or cells: HeLa (ATCC CCL-2), transient, pcDNA3.1
Procedure: as §1, §2, §3, §4

[4] = target: T4, hSERT F556A (S2 site mutant) (Homo sapiens, UniProt P31645, F556A); test: APP+ transport in HeLa cells expressing hSERT mutant F556A; format: cell-based; conditions: 2 μM APP+ 5 min, intact HeLa cells, read-out: SAG IC50 for transport
T4 construct: expressed in transfected cells; host or cells: HeLa (ATCC CCL-2), transient, pcDNA3.1
Procedure: as §1, §2, §3, §4

[5] = target: T5, hSERT Y95F (S1 site mutant) (Homo sapiens, UniProt P31645, Y95F); test: APP+ transport in HeLa cells expressing hSERT mutant Y95F; format: cell-based
T5 construct: expressed in transfected cells; host or cells: HeLa (ATCC CCL-2), transient, pcDNA3.1
Procedure: as §1, §2, §3, §4

[6] = target: T6, hSERT I172F (S1 site mutant) (Homo sapiens, UniProt P31645, I172F); test: APP+ transport in HeLa cells expressing hSERT mutant I172F; format: cell-based; conditions: 2 μM APP+ 5 min, intact HeLa cells, read-out: SAG IC50 for transport
T6 construct: expressed in transfected cells; host or cells: HeLa
Procedure: as §1, §2, §3, §4

[7] = target: T7, hSERT I327A (S2 site mutant) (Homo sapiens, UniProt P31645, I327A); test: ASP+ binding in digitonin-permeabilized HeLa cells expressing hSERT I327A; conditions: 10 μM ASP+, read-out: SAG IC50 for binding
T7 construct: expressed in transfected cells; host or cells: HeLa (ATCC CCL-2), transient, pcDNA3.1
Procedure: as §1, §2, §3, §4

[8] = target: T8, hSERT E494Q (S2 site mutant) (Homo sapiens, UniProt P31645, E494Q); test: ASP+ binding in digitonin-permeabilized HeLa cells expressing hSERT E494Q; conditions: 10 μM ASP+, read-out: SAG IC50 for binding
T8 construct: expressed in transfected cells; host or cells: HeLa (ATCC CCL-2), transient, pcDNA3.1
Procedure: as §1, §2, §3, §4

[9] = target: T9, hSERT P561G (S2 site mutant) (Homo sapiens, UniProt P31645, P561G); test: ASP+ binding in digitonin-permeabilized HeLa cells expressing hSERT P561G; conditions: 10 μM ASP+, read-out: SAG IC50 for binding
T9 construct: expressed in transfected cells; host or cells: HeLa (ATCC CCL-2), transient, pcDNA3.1
Procedure: as §1, §2, §3, §4

[10] = target: T10, hDAT Q317A (S2 site mutant) (Homo sapiens, UniProt Q01959, Q317A); test: APP+ transport in HeLa cells expressing hDAT mutant Q317A; format: cell-based; conditions: intact HeLa cells, read-out: SAG IC50
T10 construct: expressed in transfected cells; host or cells: HeLa
T10 sequence (Q01959 whole entry Q317A): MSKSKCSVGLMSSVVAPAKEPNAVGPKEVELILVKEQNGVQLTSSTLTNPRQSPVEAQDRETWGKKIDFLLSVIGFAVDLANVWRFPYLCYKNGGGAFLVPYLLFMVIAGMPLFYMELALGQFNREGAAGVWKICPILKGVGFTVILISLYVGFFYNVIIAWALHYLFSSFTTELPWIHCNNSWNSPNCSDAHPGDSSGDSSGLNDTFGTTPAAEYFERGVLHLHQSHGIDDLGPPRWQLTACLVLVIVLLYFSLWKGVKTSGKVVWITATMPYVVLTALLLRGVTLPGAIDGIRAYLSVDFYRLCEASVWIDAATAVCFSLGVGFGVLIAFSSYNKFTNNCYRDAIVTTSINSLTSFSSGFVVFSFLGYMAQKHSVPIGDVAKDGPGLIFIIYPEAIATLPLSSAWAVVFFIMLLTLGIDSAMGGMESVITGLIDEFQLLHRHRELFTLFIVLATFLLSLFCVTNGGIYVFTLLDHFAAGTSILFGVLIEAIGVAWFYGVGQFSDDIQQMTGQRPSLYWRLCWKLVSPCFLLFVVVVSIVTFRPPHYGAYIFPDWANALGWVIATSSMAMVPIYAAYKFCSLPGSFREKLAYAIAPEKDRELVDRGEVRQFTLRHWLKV
Procedure: as §1, §2, §3, §4

[11] = target: T11, hDAT D476N (S2 site mutant) (Homo sapiens, UniProt Q01959, D476N); test: APP+ transport in HeLa cells expressing hDAT mutant D476N; format: cell-based; conditions: intact HeLa cells, read-out: SAG IC50
T11 construct: expressed in transfected cells; host or cells: HeLa
T11 sequence (Q01959 whole entry D476N): as the sequence (Q01959 whole entry Q317A) above, with A317Q, D476N counted along it
Procedure: as §1, §2, §3, §4

[12] = target: T12, hDAT H477Q (S2 site mutant) (Homo sapiens, UniProt Q01959, H477Q); test: APP+ transport in HeLa cells expressing hDAT mutant H477Q; format: cell-based; conditions: intact HeLa cells, read-out: SAG IC50
T12 construct: expressed in transfected cells; host or cells: HeLa
T12 sequence (Q01959 whole entry H477Q): as the sequence (Q01959 whole entry Q317A) above, with A317Q, H477Q counted along it
Procedure: as §1, §2, §3, §4

[13] = target: T13, hDAT T566A (S2 site mutant) (Homo sapiens, UniProt Q01959, T566A); test: APP+ transport in HeLa cells expressing hDAT mutant T566A; format: cell-based
T13 construct: expressed in transfected cells; host or cells: HeLa
T13 sequence (Q01959 whole entry T566A): as the sequence (Q01959 whole entry Q317A) above, with A317Q, T566A counted along it
Procedure: as §1, §2, §3, §4

[14] = target: T14, hDAT F76V (S1 site mutant) (Homo sapiens, UniProt Q01959, F76V); test: APP+ transport in HeLa cells expressing hDAT mutant F76V; format: cell-based
T14 construct: expressed in transfected cells; host or cells: HeLa
T14 sequence (Q01959 whole entry F76V): as the sequence (Q01959 whole entry Q317A) above, with F76V, A317Q counted along it
Procedure: as §1, §2, §3, §4

[15] = target: T15, hDAT S422T (S1 site mutant) (Homo sapiens, UniProt Q01959, S422T); test: APP+ transport in HeLa cells expressing hDAT mutant S422T; format: cell-based
T15 construct: expressed in transfected cells; host or cells: HeLa
T15 sequence (Q01959 whole entry S422T): as the sequence (Q01959 whole entry Q317A) above, with A317Q, S422T counted along it
Procedure: as §1, §2, §3, §4

WT-hNET = target: T16, WT-hNET (Homo sapiens, UniProt P23975); test: APP+ transport (uptake) in HeLa cells expressing WT-hNET; format: cell-based; conditions: WT hNET; APP+ transport, intact HeLa cells; read-out: SAG IC50
T16 construct: expressed in transfected cells; host or cells: HeLa
T16 sequence (P23975 whole entry): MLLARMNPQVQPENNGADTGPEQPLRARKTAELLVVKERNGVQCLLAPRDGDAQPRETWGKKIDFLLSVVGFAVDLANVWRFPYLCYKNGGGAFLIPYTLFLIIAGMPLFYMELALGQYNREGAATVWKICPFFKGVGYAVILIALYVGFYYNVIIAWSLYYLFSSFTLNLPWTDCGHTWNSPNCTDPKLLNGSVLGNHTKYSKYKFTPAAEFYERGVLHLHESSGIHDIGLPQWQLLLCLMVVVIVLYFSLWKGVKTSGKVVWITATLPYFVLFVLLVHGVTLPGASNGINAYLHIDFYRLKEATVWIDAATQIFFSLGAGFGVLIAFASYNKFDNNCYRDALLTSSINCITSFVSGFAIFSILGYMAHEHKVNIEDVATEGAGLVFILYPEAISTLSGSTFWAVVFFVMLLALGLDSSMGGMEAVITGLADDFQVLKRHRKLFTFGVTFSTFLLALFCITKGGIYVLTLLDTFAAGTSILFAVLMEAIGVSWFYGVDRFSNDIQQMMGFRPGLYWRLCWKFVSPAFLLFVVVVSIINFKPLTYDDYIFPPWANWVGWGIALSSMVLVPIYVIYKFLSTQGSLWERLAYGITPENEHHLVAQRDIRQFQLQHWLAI
Procedure: (§5) HeLa cells were cultured in Dulbecco’s Modified Eagle’s Medium supplemented with 10% fetal bovine serum, 100 units/ml penicillin, and 100 μg/ml streptomycin at 37°C in a humidified 5% CO2 incubator. Cells were plated in a 6-well culture plate and grown overnight. Cells at ∼70% confluence were transfected with hSERT, hDAT, or hNET cDNA in pcDNA3.1 by lipofectamine 2000. Transfected cells were incubated for 24 h at 37°C with 5% CO2 and then transferred into a 12-well plate placed with polylysine coated slides. After grown for additional 12–16 h, the cells were assayed for APP^+ or ASP^+ fluorescence image acquisition.
as §3
(§6) Images were analyzed using Zen Blue software.
Nonlinear regression fits of experimental and calculated data were performed with Origin (Origin Lab). […]

[16] = target: T17, hNET F317A (S2 site mutant) (Homo sapiens, UniProt P23975, F317A); test: APP+ transport in HeLa cells expressing hNET mutant F317A; format: cell-based
T17 construct: expressed in transfected cells; host or cells: HeLa
T17 sequence (P23975 whole entry F317A): as the sequence (P23975 whole entry) above, with F317A counted along it
Procedure: as §1, §2, §3, §4

[17] = target: T18, hNET T474Q (S2 site mutant) (Homo sapiens, UniProt P23975, T474Q); test: APP+ transport in HeLa cells expressing hNET mutant T474Q; format: cell-based
T18 construct: expressed in transfected cells; host or cells: HeLa
T18 sequence (P23975 whole entry T474Q): as the sequence (P23975 whole entry) above, with T474Q counted along it
Procedure: as §1, §5
The cells expressing WT or mutants of hSERT, hDAT, or hNET were wet mounted on polylysine coated glass slides in 12-well plates and applied for the indicated treatments. In brief, the cells were washed twice with 500 μl KRH buffer containing 20 mM HEPES, pH 7.4, 120 mM NaCl, 1.3 mM KCl, 2.2 mM CaCl2, 1.2 mM MgSO4, and 0.1% (w/v) glucose. […] Excess APP^+ was then removed by rapid washing three times with 500 μl KRH buffer. The extent of APP^+ accumulated in the cells was determined by confocal imaging analysis. ASP^+ binding to SERT in the cell membrane was measured with digitonin-permeabilized cells ([Li M. et al., 2022a]). […] After removing excess ASP^+ by rapid washing three times, ASP^+ binding was determined by confocal imaging analysis.
as §6
Nonlinear regression fits of experimental and calculated data were performed with Origin (Origin Lab). The statistical analysis given was from multiple experiments. Data with error bars in the figures represent the mean ± SD for at least 10 measurements per condition in one experiment or the mean ± SEM from at least three experiments as indicated, respectively. […]

[18] = target: T19, hNET A477G (S2 site mutant) (Homo sapiens, UniProt P23975, A477G); test: APP+ transport in HeLa cells expressing hNET mutant A477G; format: cell-based; conditions: intact HeLa cells, read-out: SAG IC50
T19 construct: expressed in transfected cells; host or cells: HeLa
T19 sequence (P23975 whole entry A477G): as the sequence (P23975 whole entry) above, with A477G counted along it
Procedure: as §1, §2, §3, §4

[19] = target: T20, hNET L563A (S2 site mutant) (Homo sapiens, UniProt P23975, L563A); test: APP+ transport in HeLa cells expressing hNET mutant L563A; format: cell-based; conditions: intact HeLa cells, read-out: SAG IC50
T20 construct: expressed in transfected cells; host or cells: HeLa
T20 sequence (P23975 whole entry L563A): as the sequence (P23975 whole entry) above, with L563A counted along it
Procedure: as §1, §2, §3, §4

“(-)-Syringaresinol-4-O-β-D-apiofuranosyl-(1→2)-β-D-glucopyranoside [SAG]” gave an IC50 [1] of 53.2 ± 6.6 µM, an IC50 [2] of 111 ± 2 µM and an IC50 [3] of 88.1 ± 2.8 µM. For the same substance, the IC50 [4] was 41 ± 6.5 µM, the “Effect of mutation on SAG inhibition potency” value ([5]; hSERT Tyr95 to Phe (S1) vs WT-hSERT, APP+ transport) was “little effect” and the IC50 ([5]; hSERT Y95F (S1), 2 μM APP+ 5 min, intact HeLa cells, read-out: SAG IC50 for transport) was 4.45 ± 0.17 µM. The IC50 [6] was 12.5 ± 0.97 µM, the IC50 [7] was 48.3 ± 4.6 µM and the IC50 [8] was 192 ± 16 µM. The IC50 [9] was greater than 1000 µM, the IC50 [10] was 51.3 ± 3.1 µM and the IC50 [11] was 93.8 ± 3.9 µM. The IC50 [12] was 72.4 ± 4.8 µM, the “Increase in SAG IC50 compared with WT” value ([13]; hDAT T566A vs WT-hDAT) was “less than 10 fold” and the IC50 ([13]; hDAT T566A, intact HeLa cells, read-out: SAG IC50) was 136 ± 6 µM. The IC50 ([14]; hDAT F76V (S1), intact HeLa cells, read-out: SAG IC50) was 18.2 ± 0.8 µM, the “Effect of mutation on SAG inhibition potency” value ([14]; hDAT S1 residue Phe76 replaced) was “little effect” and the “Effect of mutation on SAG inhibition potency” value ([15]; hDAT S1 residue Ser422 replaced) was “little effect”. For the same substance, the IC50 ([15]; hDAT S422T (S1), intact HeLa cells, read-out: SAG IC50) was 24.5 ± 1.4 µM, the IC50 (WT-hNET) was 40.1 ± 2.8 µM and the “Change in SAG inhibition potency compared to WT” value ([16]; hNET F317A vs WT-hNET) was “little change”. For the same substance, the IC50 ([16]; hNET F317A, intact HeLa cells, read-out: SAG IC50) was 36.7 ± 7.6 µM, the “Change in SAG inhibition potency compared to WT” value ([17]; hNET T474Q vs WT-hNET) was “little change” and the “Decrease in SAG inhibition potency compared with WT” value ([17]; hNET T474Q vs WT-hNET) was “less than 3 folds”. It also gave an IC50 ([17]; hNET T474Q, intact HeLa cells, read-out: SAG IC50) of 49.3 ± 7.9 µM, an IC50 [18] greater than 1000 µM and an IC50 [19] of 304 ± 12 µM.
